Like-named read-outs stand apart in the source and are kept apart here.
How the values were obtained:
[1] = system: NCI-H358 cells (K-Ras G12C); assay: Potency assay: pERK in NCI-H358 cells; type: cell-based, human; conditions: Homo sapiens, NCI-H358; H358 KRAS G12C; read-out: pERK EC50
Summary of the method: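 pERK decrease read by AlphaLISA SureFire p-ERK1/2 or In-Cell Western after 4 h compound exposure at 37 °C, 5% CO2.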

[2] = biological target: NRAS Q61K (Homo sapiens (Human), UniProt P01111+P62937, Q61K); assay: Ras-Raf (BRAF RBD) disruption / FRET / MOA assay, NRAS Q61K; type: biochemical; conditions: NRAS Q61K; Ras-Raf disruption/FRET/MOA assay; read-out: IC50* NRAS Q61K FRET data
Summary of the method: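 Compounds (30 μM top final, 10-point 3-fold dilutions) incubated 3 h at 25° C with nucleotide-loaded Ras, cyclophilin A and BRAF RBD. Detection with 10 nM anti-His Eu-W1024 and 50 nM anti-GST allophycocyanin over another 1.5 h. Lowered TR-FRET ratio relative to DMSO wells gives IC50.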

[3] = biological target: KRAS G12S (Homo sapiens (Human), UniProt P01116+P62937, G12S); assay: Ras-Raf (BRAF RBD) disruption / FRET / MOA assay, KRAS G12S; type: biochemical; conditions: class symbols
Summary of the method: (§1)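 A 10-point, 3-fold dilution series topping at 30 μM final was incubated 3 h at 25° C with the Ras/cyclophilin A/BRAF RBD mixture.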

[4] = biological target: KRAS G12D (Homo sapiens (Human), UniProt P01116+P62937, G12D); assay: Ras-Raf (BRAF RBD) disruption / FRET / MOA assay, KRAS G12D; type: biochemical; conditions: class symbols
Summary of the method: as §1

[5] = Ras-Raf disruption/FRET/MOA assay, read-out: KRAS G12S FRET data IC50
[6] = Ras-Raf disruption/FRET/MOA assay, read-out: KRAS G12D FRET data IC50

Sequence of KRAS G12S (P01116-2 other isoform, or with tags, fused parts or gaps G12S): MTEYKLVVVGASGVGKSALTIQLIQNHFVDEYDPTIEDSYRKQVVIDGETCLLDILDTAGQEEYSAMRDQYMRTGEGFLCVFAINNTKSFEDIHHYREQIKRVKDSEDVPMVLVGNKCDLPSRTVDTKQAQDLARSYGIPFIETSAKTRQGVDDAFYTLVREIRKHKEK
Sequence of KRAS G12S (P62937 whole entry): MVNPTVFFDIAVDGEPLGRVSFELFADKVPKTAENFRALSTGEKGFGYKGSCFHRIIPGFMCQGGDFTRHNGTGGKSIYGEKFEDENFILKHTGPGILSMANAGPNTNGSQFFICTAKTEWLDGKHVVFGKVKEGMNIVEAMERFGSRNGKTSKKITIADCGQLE
Sequence of NRAS Q61K (P01111 whole entry Q61K): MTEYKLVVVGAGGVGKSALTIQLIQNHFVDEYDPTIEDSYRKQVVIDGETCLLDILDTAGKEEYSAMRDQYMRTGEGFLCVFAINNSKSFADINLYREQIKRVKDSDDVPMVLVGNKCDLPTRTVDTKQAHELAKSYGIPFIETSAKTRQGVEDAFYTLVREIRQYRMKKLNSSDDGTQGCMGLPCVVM
Sequence of NRAS Q61K (P62937 whole entry): as the sequence (P62937 whole entry) above
Sequence of KRAS G12D (P01116-2 other isoform, or with tags, fused parts or gaps G12D): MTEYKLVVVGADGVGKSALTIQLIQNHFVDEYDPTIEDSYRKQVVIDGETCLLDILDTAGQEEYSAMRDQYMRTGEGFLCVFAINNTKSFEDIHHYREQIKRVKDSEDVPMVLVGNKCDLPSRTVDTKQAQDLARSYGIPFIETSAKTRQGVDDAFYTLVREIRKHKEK
Sequence of KRAS G12D (P62937 whole entry): as the sequence (P62937 whole entry) above

C=CC(=O)N(C)CC1CN(C(=O)N(C)[C@H](C(=O)N[C@H]2Cc3nc(cs3)-c3ccc4c(c3)c(c(-c3cccnc3[C@H](C)OC)n4CC)CC(C)(C)COC(=O)[C@@H]3CCCN(N3)C2=O)C(C)C)C1 (atropisomer, axis not shown) [Example A368]
EC50 [1]: < 5 µM
IC50 [2]: 10 to 100 nM
IC50 [3, 5]: 100 to 1000 nM
IC50 [4, 6]: 100 to 1000 nM

C=CC(=O)N1CC[C@]2(C1)OCN([C@H](C(=O)N[C@H]1Cc3cccc(c3)-c3ccc4c(c3)c(c(-c3cccnc3[C@H](C)OC)n4CC)CC(C)(C)COC(=O)[C@@H]3CCCN(N3)C1=O)C(C)C)C2=O (atropisomer, axis not shown) [Example A371]
EC50 [1]: < 5 µM
IC50 [2]: > 10000 nM
IC50 [3, 5]: 1000 to 10000 nM
IC50 [4, 6]: > 10000 nM

CO[C@@H](C)c1ncccc1-c1c2c3cc(ccc3n1CC(F)(F)F)N1CCO[C@@H](C[C@H](NC(=O)[C@@H](COC3CN(C(=O)C#CC(C)(C)N(C)C)C3)C(C)C)C(=O)N3CCC[C@H](N3)C(=O)OCC(C)(C)C2)C1 (atropisomer, axis not shown) [Example A375, (2R)-2-(((1-(4-(dimethylamino)-4-methylpent-2-ynoyl)azetidin-3-yl)oxy)methyl)-N-((2^2S,6^3S,4S)-1^2-(2-((S)-1-methoxyethyl)pyridin-3-yl)-10,10-dimethyl-5,7-dioxo-1^1-(2,2,2-trifluoroethyl)-6^1,6^2,6^3,6^4,6^5,6^6-hexahydro-1^1H-8-oxa-2(4,2)-morpholina-1(5,3)-indola-6(1,3)-pyridazinacycloundecaphane-4-yl)-3-methylbutanamide]
EC50 [1]: < 5 µM
IC50 [2]: > 10000 nM
IC50 [3, 5]: > 10000 nM
IC50 [4, 6]: > 10000 nM

C=CC(=O)N(C)[C@@H]1CCCN(C(=O)N(C)[C@H](C(=O)N[C@H]2Cc3nc(cs3)-c3ccc4c(c3)c(c(-c3cccnc3[C@H](C)OC)n4CC)CC(C)(C)COC(=O)[C@@H]3CCCN(N3)C2=O)C(C)C)C1 (atropisomer, axis not shown) [Example A382]
EC50 [1]: < 5 µM
IC50 [2]: 10 to 100 nM
IC50 [3, 5]: 10 to 100 nM
IC50 [4, 6]: 100 to 1000 nM

C=CC(=O)N(C)C1CCN(C(=O)N(C)[C@H](C(=O)N[C@H]2Cc3nc(cs3)-c3ccc4c(c3)c(c(-c3cccnc3[C@H](C)OC)n4CC)CC(C)(C)COC(=O)[C@@H]3CCCN(N3)C2=O)C(C)C)CC1 (atropisomer, axis not shown) [Example A383]
EC50 [1]: < 5 µM
IC50 [2]: 10 to 100 nM
IC50 [3, 5]: 10 to 100 nM
IC50 [4, 6]: 100 to 1000 nM

C=CC(=O)N1C[C@@H](C)N(C(=O)N(C)[C@H](C(=O)N[C@H]2Cc3nc(cs3)-c3ccc4c(c3)c(c(-c3cccnc3[C@H](C)OC)n4CC)CC(C)(C)COC(=O)[C@@H]3CCCN(N3)C2=O)C(C)C)[C@H](C)C1 (atropisomer, axis not shown) [Example A388]
EC50 [1]: < 5 µM
IC50 [2]: < 10 nM
IC50 [3, 5]: 10 to 100 nM
IC50 [4, 6]: 10 to 100 nM

C=CC(=O)N1C[C@@H]2CN(C(=O)N(C)[C@H](C(=O)N[C@H]3Cc4nc(cs4)-c4ccc5c(c4)c(c(-c4cccnc4[C@H](C)OC)n5CC)CC(C)(C)COC(=O)[C@@H]4CCCN(N4)C3=O)C(C)C)C[C@@H]2C1 (atropisomer, axis not shown) [Example A389]
EC50 [1]: < 5 µM
IC50 [2]: 10 to 100 nM
IC50 [3, 5]: 10 to 100 nM
IC50 [4, 6]: 100 to 1000 nM

C=CC(=O)N(C)[C@@H]1CCN(C(=O)N(C)[C@H](C(=O)N[C@H]2Cc3nc(cs3)-c3ccc4c(c3)c(c(-c3cccnc3[C@H](C)OC)n4CC)CC(C)(C)COC(=O)[C@@H]3CCCN(N3)C2=O)C(C)C)C1 (atropisomer, axis not shown) [Example A416]
EC50 [1]: < 5 µM
IC50 [2]: 10 to 100 nM
IC50 [3, 5]: 100 to 1000 nM
IC50 [4, 6]: 1000 to 10000 nM

C=CC(=O)N1CC[C@H](C(=O)N(C)[C@H](C(=O)N[C@H]2Cc3coc(n3)-c3ccc4c(c3)c(c(-c3cccnc3[C@H](C)OC)n4CC)CC(C)(C)COC(=O)[C@@H]3CCCN(N3)C2=O)C(C)C)C1 (atropisomer, axis not shown) [Example A468]
EC50 [1]: < 5 µM
IC50 [2]: 1000 to 10000 nM
IC50 [3, 5]: 1000 to 10000 nM
IC50 [4, 6]: > 10000 nM

C=CC(=O)N1CCN(C(=O)N(C)[C@H](C(=O)N[C@H]2Cc3nc(cs3)-c3ccc4c(c3)c(c(-c3cccnc3[C@H](C)OC)n4CC)CC(C)(C)COC(=O)[C@@H]3CCCN(N3)C2=O)C(C)C)CC1 (atropisomer, axis not shown) [Example A491]
EC50 [1]: < 5 µM
IC50 [2]: 10 to 100 nM
IC50 [3, 5]: 10 to 100 nM
IC50 [4, 6]: 100 to 1000 nM

C=CC(=O)N1CC[C@H](C(=O)N(C)[C@H](C(=O)N[C@H]2Cc3nc(cs3)-c3ccc4c(c3)c(c(-c3cccnc3[C@H](C)OC)n4CC(F)(F)F)CC(C)(C)COC(=O)[C@@H]3CCCN(N3)C2=O)C(C)C)C1 (atropisomer, axis not shown) [Example A502]
EC50 [1]: < 5 µM
IC50 [2]: 100 to 1000 nM
IC50 [3, 5]: 100 to 1000 nM
IC50 [4, 6]: 1000 to 10000 nM

C=CC(=O)N1CC[C@H](C(=O)N(C)[C@H](C(=O)N[C@H]2Cc3cc(CF)cc(c3)-c3ccc4c(c3)c(c(-c3cccnc3[C@H](C)OC)n4CC)CC(C)(C)COC(=O)[C@@H]3CCCN(N3)C2=O)C(C)C)C1 (atropisomer, axis not shown) [Example A503]
EC50 [1]: < 5 µM
IC50 [2]: 1000 to 10000 nM
IC50 [3, 5]: 1000 to 10000 nM
IC50 [4, 6]: 1000 to 10000 nM

C=CC(=O)N1CC[C@H](C(=O)N(C)[C@H](C(=O)N[C@H]2Cc3cccc(c3)-c3ccc4c(c3)c(c(-c3cc(CN(C)C)cnc3[C@H](C)OC)n4CC)CC(C)(C)COC(=O)[C@@H]3CCCN(N3)C2=O)C(C)C)C1 (atropisomer, axis not shown) [Example A522]
EC50 [1]: < 5 µM
IC50 [2]: 1000 to 10000 nM
IC50 [3, 5]: 1000 to 10000 nM
IC50 [4, 6]: > 10000 nM

C=CC(=O)N1CCO[C@H]2CN(C(=O)N(C)[C@H](C(=O)N[C@H]3Cc4cc(C(F)F)cc(n4)-c4ccc5c(c4)c(c(-c4cccnc4[C@H](C)OC)n5CC(F)(F)F)CC(C)(C)COC(=O)[C@@H]4CCCN(N4)C3=O)C(C)C)C[C@H]21 (atropisomer, axis not shown) [Example A540]
EC50 [1]: < 5 µM
IC50 [2]: 1000 to 10000 nM
IC50 ([3]; KRAS G12S FRET data IC50, Ras-Raf disruption/FRET/MOA assay): 1000 to 10000 nM
IC50 ([4]; KRAS G12D FRET data IC50, Ras-Raf disruption/FRET/MOA assay): > 10000 nM

C=CC(=O)N1CCO[C@@H]2CN(C(=O)N(C)[C@H](C(=O)N[C@H]3Cc4nc(cs4)-c4ccc5c(c4)c(c(-c4cccnc4[C@H](C)OC)n5CC)CC(C)(C)COC(=O)[C@@H]4CCCN(N4)C3=O)C(C)C)C[C@H]21 (atropisomer, axis not shown) [Example A543]
EC50 [1]: < 5 µM
IC50 [2]: 10 to 100 nM
IC50 [3, 5]: 100 to 1000 nM
IC50 [4, 6]: 1000 to 10000 nM

C=CC(=O)N1CCO[C@H]2CN(C(=O)N(C)[C@H](C(=O)N[C@H]3Cc4nc(cs4)-c4ccc5c(c4)c(c(-c4cccnc4[C@H](C)OC)n5CC)CC(C)(C)COC(=O)[C@@H]4CCCN(N4)C3=O)C(C)C)C[C@@H]21 (atropisomer, axis not shown) [Example A544]
EC50 [1]: < 5 µM
IC50 [2]: 10 to 100 nM
IC50 [3, 5]: 100 to 1000 nM
IC50 [4, 6]: 1000 to 10000 nM

C=CC(=O)N1CCOC2(CCN(C(=O)N(C)[C@H](C(=O)N[C@H]3Cc4nsc(n4)-c4ccc5c(c4)c(c(-c4cccnc4[C@H](C)OC)n5CC)CC(C)(C)COC(=O)[C@@H]4CCCN(N4)C3=O)C(C)C)CC2)C1 (atropisomer, axis not shown) [Example A545]
EC50 [1]: < 5 µM
IC50 [2]: 10 to 100 nM
IC50 [3, 5]: 100 to 1000 nM
IC50 [4, 6]: 1000 to 10000 nM

C=CC(=O)N1CC[C@@H]2[C@H]1CN2C(=O)N(C)[C@H](C(=O)N[C@H]1Cc2nc(cs2)-c2ccc3c(c2)c(c(-c2cccnc2[C@H](C)OC)n3CC)CC(C)(C)COC(=O)[C@@H]2CCCN(N2)C1=O)C(C)C (atropisomer, axis not shown) [Example A546]
EC50 [1]: < 5 µM
IC50 [2]: 100 to 1000 nM
IC50 [3, 5]: 1000 to 10000 nM
IC50 [4, 6]: 1000 to 10000 nM

CCn1c(-c2cccnc2[C@H](C)OC)c2c3cc(ccc31)-c1cccc(c1)C[C@H](NC(=O)[C@H](C(C)C)N1CC[C@@]3(CCN(C(=O)C#C[C@H]4COCCN4C)C3)C1=O)C(=O)N1CCC[C@H](N1)C(=O)OCC(C)(C)C2 (atropisomer, axis not shown) [Example A551]
EC50 [1]: < 5 µM
IC50 [2]: 1000 to 10000 nM
IC50 [3, 5]: 1000 to 10000 nM
IC50 [4, 6]: 1000 to 10000 nM

From patent publication US11566007B2, “Ras inhibitors” (Revolution Medicines, Inc., priority 2019, dated 2023)
